We go through three compounds from paper PMC8224453, “A New PqsR Inverse Agonist Potentiates Tobramycin Efficacy to Eradicate Pseudomonas aeruginosa Biofilms” (Advanced Science, 2021).

One series relates to planktonic PA14 wt. As to the kind of experiment: MIC assay, microbroth dilution. Format: cell-based. As to conditions: Pseudomonas aeruginosa. The method, then:
composed of 15.5 g/L LB agar, 10 g/L peptone, 5 g/L NaCl and 5 g/L yeast extract, the resulting solution was sterilized before being plated.
The minimum inhibitory concentration […] of drug-free SqNPs, compound 4 prepared either in dimethyl sulfoxide (DMSO) or loaded in SqNPs, free Tob, Tob-loaded SqNPs, and Tob and compound 4 co-loaded SqNPs against planktonic PA14 wt were determined by standard microbroth dilution assays in 96-well plates. PA14 wt suspension was prepared from mid-log cultures in PPGAS medium and diluted to OD600 (absorption at 600 nm) 0.02 (2∙10^7 CFU/mL (CFU, colony-forming units)). PBS served as a control. Following 16 h incubation […]
nm) that were measured using a Tecan microplate reader Infinite M200Pro (Tecan, Crailsheim, Germany). The IC90 values are concentrations at which the growth of bacteria is inhibited by 90%. Three independent experiments were conducted in triplicate. Results are […]
Table S2. MIC assay against PA14 wt. Three independent experiments were conducted in triplicate.
Samples MIC (IC90 value) against PA14 wt
Drug-free SqNPs > 200 µg/mL
Compound (4) prepared in DMSO > 20 µM
Compound (4)-loaded SqNPs > 20 µM (a)
Tob loaded SqNPs 3.125 – 6.25 µg/mL (b)
Tob and compound (4) co-loaded SqNPs 3.125 – 6.25 µg/mL (b)
((4) concentration 20 µM)
(a) Compound (4) concentration
4.3. Minimum Biofilm Eradicating Concentration (MBEC) assay
Chemical and biological materials for in vitro assays. All chemicals were purchased from Sigma-Aldrich unless otherwise specified. Yeast extract was obtained from Fluka. Bacto™ Tryptone were obtained from BD Biosciences. Luria Bertani (LB) agar was obtained from Carl Roth. Gibco® PBS was obtained from Life Technologies. Purified water was prepared by a Milli-Q water purification system (Merk Millipore, Billerica, MA). The PA strain PA14

Series [1] is described as follows: Metabolic stability half-life (matrix not given). As to conditions: matrix not stated; read-out: metabolic stability half-life t 1/2. Format: in vitro ADME. On the procedure:
First, we evaluated the most promising compounds considering in vitro pharmacokinetic properties such as solubility and metabolic stability. […] Compounds 4 and 19 were moderately stable with half‐lives of 10 and 19 min, respectively.

A short description of series [2]: Metabolic stability, mouse liver S9. Format: in vitro ADME. The method, then:
For the evaluation of combined phase I and phase II metabolic stability, the compound (1 μM) was incubated with 1 mg/mL pooled liver S9 fraction from the respective species (Xenotech), […]
2 mM NADPH, 1 mM UDPGA, 10 mM MgCl2, 5 mM GSH and 0.1 mM PAPS at 37 °C for […]
0, 5, 15, 30 or 60 min. The metabolic stability of Testosterone (1 μM) and verapamil (1 μM) […]
were determined in parallel to confirm the enzymatic activity of the S9 fraction. The […]
incubation was stopped by precipitation of S9 enzymes with 2 volumes of cold acetonitrile […]
containing internal standard (750 nM Diphenhydramine). Samples were stored on ice for 10 […]
min and precipitated protein was removed by centrifugation (10 min, 4 °C, 17,000 g).
Concentration of the remaining test compound at the different time points was analyzed by […]
LC-MS/MS (TSQ Quantum Access MAX, Thermo Fisher, Dreieich, Germany) and used to […]
determine half-life (t1/2). Stability of compound 4 in further S9 fractions are summarized in […]
Table S4. Metabolic stability studies in various S9 fractions. […]

Another series has as its target T1, PqsR (Pseudomonas aeruginosa, UniProt Q9I4X0).
T1 construct: which expresses PqsR and the β-galactosidase LacZ under the control of the pqsA promoter; expressed in transfected cells; host or cells: E. coli DH5α carrying plasmid pEAL08-2
As to the kind of experiment: PqsR β-galactosidase reporter-gene assay in E. coli DH5α. Format: cell-based. The method, then:
3. Primary Activity Assays
The inverse agonistic/antagonistic activity of potential PqsR ligands was evaluated in a β-galactosidase reporter gene assay in E. coli as previously described.[3] In short, test compounds were co-incubated with E. coli DH5α cells containing the plasmid pEAL08-2,[4] which expresses PqsR and the β-galactosidase LacZ under the control of the pqsA promoter.
The inverse agonistic/antagonistic activity of compounds was measured in the presence of 50 nM PQS. After incubation, galactosidase activity was quantified photometrically and expressed as ratio of controls. The given IC50 values represent the mean of at least two independent experiments using at least eight different concentrations of test compound with n = 4. Non-linear regression analysis was performed using OriginPro 2020. […]

Series [3] deals with pyocyanin production in PA14 wt. As to the kind of experiment: Pyocyanin assay in PA14 wt. As to conditions: Pseudomonas aeruginosa, PA14, read-out: IC50 pyocyanin. Format: cell-based. The method, then: The pyocyanin inhibitory effect of the synthesized compounds and the compound (4) loaded SqNPs on PA14 wt were investigated by pyocyanin assay as described in previous work.[2,5] Briefly, PA14 wt was grown in PPGAS medium, overnight, at 37 °C, shaking at 200 rpm. The bacterial suspension was then centrifuged at 7.450 g, washed twice and diluted to a final OD600 (absorption at 600 nm) of 0.02 (2∙10^7 CFU/mL) in fresh PPGAS. 1.5 mL of the […]
(1 picture or pasted object on this page, not shown here) […]
culture was distributed in each well of the 24 well-plate. The free synthesized QSI prepared in DMSO, compound (4) loaded SqNPs were supplemented to bacteria-containing wells (1:100 dilutions). PA14 wt treated with either PBS or drug-free SqNPs (200 μg/mL) served as controls. Following 16 h incubation under aerobic conditions, pyocyanin in 900 μL of bacteria culture was extracted with chloroform and re-extracted with 0.2 M HCl. Pyocyanin production level was measured as the absorption at 520 nm, which was normalized to cell growth measured as OD600. 0.2 M HCl served as blank samples. Three independent experiments were conducted in triplicate. Non-linear regression analysis was performed using […]
(4) loaded SqNPs on PA14 wt. The pyocyanin inhibitory efficacy was improved by a factor of […]
It is noted that as reported in our prior
Figure S2. The production of pyocyanin levels compared to control PA14 wide type (wt) of the samples treated with 200 μg/mL drug free SqNPs. Three independent experiments were conducted in triplicate. […]
(also on this page, place not known: ( 4) -containing -free bacteria re -extracted compo und ( 4) (IC 50 nM ) (IC 50 nM ). drug P A14 5,6,7,8 -tetradeutero-2-heptyl-4(1H)-quinolone standa rd -40 -20 0 20 40 60 80 100 120 0.005 0.05 0.5 pyo production inhibition [%] Compound concentration loaded SqNPs [µM] IC50 = 100 ± 0.018 [nM])

Setting [4] is: pooled mouse liver S9 fraction, Table 2, read-out: Metabolic stability t 1/2 S9 mouse.

Like-named read-outs stand apart in the source and are kept apart here.

T1 sequence (Q9I4X0 whole entry): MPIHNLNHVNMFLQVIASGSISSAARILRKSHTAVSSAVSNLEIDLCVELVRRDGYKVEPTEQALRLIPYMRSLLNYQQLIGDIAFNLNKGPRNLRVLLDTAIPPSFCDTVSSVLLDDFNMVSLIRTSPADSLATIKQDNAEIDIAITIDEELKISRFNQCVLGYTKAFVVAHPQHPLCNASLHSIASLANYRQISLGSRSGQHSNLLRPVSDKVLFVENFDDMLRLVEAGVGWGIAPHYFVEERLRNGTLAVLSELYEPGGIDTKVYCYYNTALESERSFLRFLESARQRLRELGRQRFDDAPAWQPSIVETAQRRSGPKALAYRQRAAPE

`NC[C@H]1O[C@H](O[C@H]2[C@H](O)[C@@H](O[C@H]3O[C@H](CO)[C@@H](O)[C@H](N)[C@H]3O)[C@H](N)C[C@@H]2N)[C@H](N)C[C@@H]1O` [Tobramycin, tobramycin]: the minimum inhibitory concentration (MIC) in the series on planktonic PA14 wt (PA14, Tob concentration, 16 h, read-out: MIC (IC90 value) against PA14 wt) lay within 3.12 to 6.25 µg/mL; with planktonic PA14 wt (PA14 wt, read-out: MIC in the planktonic setting), 3.12 to 6.25 µg/mL.

Regarding `COc1ccc(-n2cc(CNc3ccnc(C(F)(F)F)c3)nn2)cc1Cl` [Compound 17], the half-life in series [1] came out at 3 min. Besides, the half-life at 1 μM in series [2] (setting [4]) was 11 min. In addition, the 50% inhibitory concentration (IC50) against PqsR came to 8 nM; in series [3] it was 350 nM. Besides, the “fold higher activity than monosubstituted 11” value on PqsR (PqsR reporter-gene IC50, versus 11) is reported as 10 fold.

`FC(F)(F)c1cc(NCc2cn(-c3ccc(Oc4ccccc4)cc3)nn2)ccn1` [Compound 4]: the half-life in series [1] is 10 min. Further, in the series with planktonic PA14 wt (PA14, compound (4) concentration, 16 h, read-out: MIC (IC90 value) against PA14 wt), the MIC was over 20 µM. The half-life at 1 μM came to 19.9 ± 7.5 min in series [2] (pooled liver S9 fraction, Table S4, read-out: t1/2 mouse liver S9) and 29 min in series [2] (setting [4]). Further, the IC50 at PqsR came to 11 nM; in series [3], 199 nM.
